Where only a bound is given, the exact number is not on record here.

Consider nine compounds from US12024531B2, “Immunoproteasome inhibitors” (Principia Biopharma Inc., priority 2017, dated 2024).

Experiment [1] addresses T1, PBMC LMP2 (Homo sapiens, UniProt P28065). Nature of the experiment: Inhibition of proteasome activity in cells (Proteasome-Glo), PBMC/LMP2. Particulars: 2 h incubation at 37° C. The format is cell-based. The procedure:
(§1) The cell-based effects of a compound described herein on the immunoproteasome were determined by measuring inhibition of proteasome activity in cells using the Proteasome-Glo™ Cell-Based Reagent (Promega, Madison WI). The Proteasome-Glo™ assay contains a specific luminogenic proteasome substrate in a buffer optimized for cell permeabilization, proteasome activity, and luciferase activity. For the chymotrypsin-like activity (LMP7 and 05c), the peptide substrate is Suc-LLVY-aminoluciferin (Succinyl-leucine-leucine-valine-tyrosine-aminoluciferin). Cleavage of the substrate by proteasome results in luminescent signal which is proportional to the proteasome activity. The cell line THP-1 (a monocytic leukemia cell line enriched in immunoproteasome), the cell line HT-29 (a colorectal adenocarcinoma cell line enriched in constitutive proteasome), and primary human peripheral blood mononuclear cells (PBMC) were used to assess proteasome activity. Cells were seeded in a 96-well plate at 10,000 cells per well in RPMI 1640 high glucose medium with 10% fetal bovine serum (FBS). Compound dilutions were added to cells starting at a concentration of 5 uM and decreasing in tripling dilutions. The final DMSO concentration was 1%. The concentration range was adjusted as needed for compounds of different potencies. The cells treated with compounds were incubated for 2 h at 37° C. in 5% CO2. At the end of the 2 hour incubation period, cells were transferred to white 384 well assay plates. 20 uL of Proteasome-Glo™ Reagent was added to each well and incubated for 10 minutes at rt. The plate was read in the Analyst HT instrument (Molecular Devices, Sunnyvale, CA) using luminescence mode. The percent inhibition of activity was plotted as a function of log compound concentration. The IC50 was then calculated for each compound using Prism software from GraphPad Software Inc. (San Diego, CA).

For experiment [2], the target named is immunoproteasome LMP7/B5i subunit (Homo sapiens, UniProt P28062). Nature of the experiment: Caliper-based proteasome enzymatic activity assay, LMP7. The following applies: human recombinant immunoproteasome 0.3 nM, FAM peptide substrate 1 μM, rt 3 h. The class given is biochemical.
The target in experiment [3] is T1, PBMC LMP2. Nature of the experiment: Durability of binding in cells (wash-out, Proteasome-Glo), PBMC LMP2. The class given is cell-based. The procedure:
(§2) The durability of binding of proteasome inhibitors was assessed in cells using wash-out assays and the Proteasome-Glo™ Reagent kit. THP-1 cells, HT-29 cells, or PBMC were incubated with an 8-fold dilution series of inhibitor for 2 h. Following 2 h of incubation, cells were washed using 3 occasions of centrifugation followed by resuspension in culture medium. Following inhibitor washout, cells were returned to culture for either 30 minutes, 4 h, or 18 h. Cells were then transferred to white 384 plates, and 20 uL of Proteasome-Glo™ Reagent was added to each well for 10 minutes. Plates were then read on an Analyst HT plate reader using luminescence mode. The percent inhibition of activity was plotted as a function of log compound concentration. The IC50 was then calculated for each compound using Prism software from GraphPad.

The target in experiment [4] is constitutive proteasome β5c subunit (Homo sapiens, UniProt P28074). Nature of the experiment: Caliper-based proteasome enzymatic activity assay, β5c. The format is biochemical. The following applies: human recombinant constitutive proteasome 0.3 nM, FAM peptide substrate 1 μM, rt 3 h.
The target in experiment [5] is T2, HT29 β5c (Homo sapiens, UniProt P28074). Nature of the experiment: Inhibition of proteasome activity in cells (Proteasome-Glo), HT29/β5c. The class given is cell-based. The following applies: HT-29 cells, 2 h incubation at 37° C. The procedure:
as §1, with “Compound dilutions were added to cells starting at a concentration of 5 uM and decreasing in tripling dilutions. The final DMSO concentration was 1%. The concentration range was adjusted as needed for compounds of different potencies. The cells treated with compounds were incubated for 2 h at 37° C. in 5% CO2. At the end of the 2 hour incubation period, cells were transferred to white 384 well assay plates. 20 uL of Proteasome-Glo™ Reagent was added to each well and incubated for 10 minutes at rt.” left out, “The percent inhibition of activity was plotted as a function of log compound concentration.” left out

Experiment [6] has as its target T3, PBMC LMP7 (Homo sapiens, UniProt P28062). Nature of the experiment: Inhibition of proteasome activity in cells (Proteasome-Glo), PBMC/LMP7. The class given is cell-based. The following applies: 2 h incubation at 37° C. The procedure:
as §1

In experiment [7] the target is T3, PBMC LMP7. Nature of the experiment: Durability of binding in cells (wash-out, Proteasome-Glo), PBMC LMP7. The format is cell-based. The procedure:
as §2

Experiment [8] concerns the target immunoproteasome LMP2 subunit (Homo sapiens, UniProt P28065). Nature of the experiment: Caliper-based proteasome enzymatic activity assay, LMP2. The class given is biochemical. Particulars: human recombinant immunoproteasome 0.3 nM, FAM peptide substrate 1 μM, rt 2 h.
In experiment [9] the target is T2, HT29 β5c. Nature of the experiment: Durability of binding in cells (wash-out, Proteasome-Glo), HT29 β5c. The class given is cell-based. The procedure:
as §2

Experiment [10] has as its system multiple myeloma cell lines and primary patient tumor cells. The following applies: cited from earlier work.
The subject of experiment [11] is Th1/17 differentiation. The following applies: cited from earlier work.
Experiment [12] deals with Hashimoto's thyroiditis model. Particulars: mouse, in vivo; cited from earlier work.
The test system of experiment [13] is MRL/lpr lupus model. The following applies: cited from earlier work.
The subject of experiment [14] is production of proinflammatory cytokines (IL-6, TNF-α, IL-23). Particulars: cited from earlier work.
The subject of experiment [15] is murine collagen-induced arthritis. The following applies: mouse, in vivo; cited from earlier work.
Experiment [16] concerns murine DSS-induced colitis model. Particulars: cited from earlier work.
For experiment [17], the system named is prostate PC-3 cell line. Particulars: cited from earlier work.
The test system of experiment [18] is tumor growth. The following applies: mouse; cited from earlier work.

In the case of `CC(C)(C)NC(=O)C(C#N)=Cc1cccc(OCCC(=O)N[C@@H](Cc2ccccc2)B(O)O)c1` [Example 2, (R)-(1-(3-(3-(3-(tert-butylamino)-2-cyano-3-oxoprop-1-en-1-yl)phenoxy)propanamido)-2-phenylethyl)boronic Acid], the IC50 in experiment [1] is 3820 nM; in experiment [2], 3 nM; in [3] (4 hr after inhibitor washout) it was above 5000 nM; in [3] (18 hr after inhibitor washout), above 5000 nM; in experiment [4], 66 nM; in experiment [5] it was 73 nM. The IC50 stood at 5 nM in [6]; 5 nM in experiment [7] (30 min after inhibitor washout); 10 nM in experiment [7] (4 hr after inhibitor washout); 126 nM in experiment [7] (18 hr after inhibitor washout); 160 nM in experiment [8]; 109 nM in [9] (30 min after inhibitor washout). Besides, the IC50 in experiment [9] (4 hr after inhibitor washout) and in experiment [9] (18 hr after inhibitor washout) was above 5000 nM each time.

For the compound `CC(C)(C)NC(=O)C(C#N)=Cc1cccc(OCCC(=O)N[C@@H](Cc2coc3ccccc23)B(O)O)c1` [Example 14, (R)-(2-(benzofuran-3-yl)-1-(3-(3-(3-(tert-butylamino)-2-cyano-3-oxoprop-1-en-1-yl)phenoxy)propanamido)ethyl)boronic Acid], the IC50 turned out to be 510 nM in experiment [1]; 0.2 nM in experiment [2]; 4 nM in [4]; 2 nM in [6]; 3240 nM in experiment [8].

Turning to `CN(C)C(=O)C(C#N)=Cc1cccc(COC(=O)N[C@@H](Cc2ccccc2)B(O)O)c1` [Example 15, (R)-(1-((((3-(2-cyano-3-(dimethylamino)-3-oxoprop-1-en-1-yl)benzyl)oxy)carbonyl)amino)-2-phenylethyl)boronic Acid], the IC50 is above 5000 nM in [1]; 8 nM in experiment [2]; 3240 nM in experiment [4]; 18 nM in [6]; 2920 nM in experiment [8].

For `CN(C)C(=O)C(C#N)=Cc1cccc(CCOC(=O)N[C@@H](Cc2ccccc2)B(O)O)c1` [Example 17, (R)-(1-(((3-(2-cyano-3-(dimethylamino)-3-oxoprop-1-en-1-yl)phenethoxy)carbonyl)amino)-2-phenylethyl)boronic Acid], the IC50 was above 5000 nM in experiment [1]; 8 nM in experiment [2]; 1310 nM in experiment [4]; 9 nM in experiment [6]; above 5000 nM in [8].

Regarding `CN1CCN(C(=O)C(C#N)=Cc2cccc(OCCC(=O)N[C@@H](Cc3ccccc3)B(O)O)c2)CC1` [Example 19, (R)-(1-(3-(3-(2-cyano-3-(4-methylpiperazin-1-yl)-3-oxoprop-1-en-1-yl)phenoxy)propanamido)-2-phenylethyl)boronic Acid], the IC50 in experiment [1] is above 5000 nM; in experiment [2], 11 nM; in [4], 43 nM; in experiment [6], 67 nM; in experiment [8] it was 170 nM.

Consider `CNC(=O)C(C#N)=Cc1cccc(OCCC(=O)N[C@@H](Cc2ccccc2)B(O)O)c1` [Example 20, (R)-(1-(3-(3-(2-cyano-3-(methylamino)-3-oxoprop-1-en-1-yl)phenoxy)propanamido)-2-phenylethyl)boronic Acid], for which the IC50 was above 5000 nM in experiment [1]; 3 nM in experiment [2]; 32 nM in [4]; 34 nM in [6]; 120 nM in [8].

As to `CC1=C(C(=O)N[C@H](C)C(=O)N[C@@H](Cc2c[nH]c3ccccc23)C(=O)N[C@@H](Cc2ccccc2)C(=O)[C@@]2(C)CO2)Cc2ccccc21` [PR-924], the “growth of multiple myeloma cell lines and primary patient tumor cells” value in experiment [10] is “inhibit growth”.

Take `COc1ccc(C[C@H](NC(=O)[C@H](C)NC(=O)CN2CCOCC2)C(=O)N[C@@H](Cc2ccccc2)C(=O)[C@@]2(C)CO2)cc1` [PR-957]: the “human and mouse Th1/17 differentiation” value in [11] is on record as “potently block”. Also, the “efficacy in autoantibody-driven Hashimoto's thyroiditis model” value in experiment [12] is “efficacious”. Also, the “plasma cell numbers and anti-dsDNA IgG levels” value in experiment [13] is “reduced plasma cell numbers and anti-dsDNA IgG levels”. In [14], the “B cell effector functions and production of proinflammatory cytokines (IL-6, TNF-α, IL-23)” value is listed as “potently block”. Moreover, the “disease activity in murine collagen-induced arthritis” value in [15] was “significantly inhibit disease activity”. For the same compound, the “inflammation and tissue destruction” value in experiment [16] is “reduced inflammation and tissue destruction”.

In the case of `CCCCCCC(=O)N[C@@H](C)C(=O)N[C@@H](CC(C)C)C(=O)[C@@]1(CO[Si](C)(C)C(C)(C)C)CO1` [UK-101], the “apoptosis of prostate PC-3 cell line in vitro” value in [17] was “induced apoptosis”. The “tumor growth in vivo” value in experiment [18] is reported as “significantly suppressed tumor growth”.
